Test results reported in US6329137A (priority 2000, dated 2001).
Like-named read-outs stand apart in the source and are kept apart here.

Columns and labels:
recombinant PTP1B = conditions: oxidizing its catalytic site cysteine; cited from earlier work
CD45 = format: cell-based
[1] = test system: PTPs (PTP1B-FL, CD45-cat and CD45-FL); format: cell-based
PTP1B-FL = PTP1B-FL (Homo sapiens, UniProt P18031); experiment: cell-based
[2] = test system: background phosphatases in mock-infected sf9 cells; format: cell-based, fall armyworm Spodoptera; conditions: for effect on background phosphatases: infected sf9 cells, 10 mM pNPP
CD45-cat = format: cell-based; conditions: infected sf9 cells, 10 mM pNPP
PTP = conditions: cited from earlier work

Chain of PTP1B-FL (P18031 whole entry): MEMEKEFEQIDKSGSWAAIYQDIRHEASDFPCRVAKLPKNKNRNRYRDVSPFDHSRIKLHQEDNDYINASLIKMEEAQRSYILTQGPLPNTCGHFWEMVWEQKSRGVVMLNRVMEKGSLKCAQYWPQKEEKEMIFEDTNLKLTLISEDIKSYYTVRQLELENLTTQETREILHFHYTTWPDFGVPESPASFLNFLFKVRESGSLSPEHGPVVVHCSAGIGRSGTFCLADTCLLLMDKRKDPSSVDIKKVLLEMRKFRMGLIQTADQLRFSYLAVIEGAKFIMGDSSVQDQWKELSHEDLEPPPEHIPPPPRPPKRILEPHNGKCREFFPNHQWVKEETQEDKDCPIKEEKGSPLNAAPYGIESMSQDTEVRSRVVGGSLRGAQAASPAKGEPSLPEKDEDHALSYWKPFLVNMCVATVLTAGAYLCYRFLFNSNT

Structure (SMILES): OO [hydrogen peroxide]
- inactivation of recombinant PTP1B in vitro (recombinant PTP1B): inactivate recombinant PTP1B in vitro
- IC50 (CD45; read-out: IC50 range): 10 to 15 µM
- potency and selectivity in words ([1]; intact sf9 cells, 10 mM pNPP): limited potency and selectivity
- IC50 ([1]; read-out: IC50 values in the range of): 7 to 16 µM
- IC50 (PTP1B-FL): 10 to 15 µM

Structure (SMILES): C=C1[C@@H](O)[C@@H]2O[C@]3(CC[C@H](/C=C/[C@@H](C)[C@@H]4CC(C)=C[C@@]5(O[C@H](C[C@@](C)(O)C(=O)O)CC[C@H]5O)O4)O3)CC[C@H]2O[C@@H]1[C@@H](O)C[C@H](C)[C@H]1O[C@@]2(CCCCO2)CC[C@H]1C [okadaic acid]
- effect on background phosphatases ([2]; okadaic acid at 6.7 μM): Neither ouabain at 1 mM or okadaic acid at 6.7 μM had any effect
- effect on CD45-cat phosphatase (CD45-cat; okadaic acid at 6.7 μM): Neither ouabain at 1 mM or okadaic acid at 6.7 μM had any effect
- effect on pNPP hydrolysis [1]: had no effect

Structure (SMILES): C[C@@H]1O[C@@H](O[C@H]2C[C@@H](O)[C@]3(CO)[C@H]4[C@H](O)C[C@]5(C)[C@@H](C6=CC(=O)OC6)CC[C@]5(O)[C@@H]4CC[C@]3(O)C2)[C@H](O)[C@H](O)[C@H]1O [ouabain]
- inhibition of background infected cells [2]: no inhibition up to 1 mM
- effect on background phosphatases ([2]; ouabain at 1 mM): Neither ouabain at 1 mM or okadaic acid at 6.7 μM had any effect
- effect on CD45-cat phosphatase (CD45-cat; ouabain at 1 mM): Neither ouabain at 1 mM or okadaic acid at 6.7 μM had any effect
- inhibition of CD45 expressing cells (CD45): no inhibition up to 1 mM

Structure (SMILES): [Na+].[Na+].[Na+].[O]=[V]([O-])([O-])[O-] [vanadate, sodium orthovanadate]
- mode of binding at active site (PTP): competitively and reversibly bound at the active site
- IC50 [2]: 1.6 µM
